# Measurements as given in patent US11149028B2, “Methods for treating melanoma using small molecules” (NOVA SOUTHEASTERN UNIVERSITY, priority 2016, dated 2021).
# Entries after “also recorded” stand apart in the source; their conditions may differ.
# What was measured:
# [1] = tested on: cleaved lamin A/C in WM266-4 cells; assay: Western blotting for lamin A/C cleavage; type: cell-based, human; details: for cleaved lamin A/C level: 100 μM, 24 h
# Procedure: (§1) 1×10^6 of WM266-4 or M14 cells were seeded in 3 mL of E-MEM or RPMI-1640 medium supplemented with 10% FBS and 1% penicillin/streptomycin in 6 cm plates. […] After washing with TBST, the membranes were treated with chemilumiscent horseradish peroxidase detection reagent (Thermo Scientific, Cat #32209) and exposed to autoradiography film (Denville Scientific, Inc., Metuchen, N.J., USA, cat #E3018). ImageJ software (NIH, Bethesda, Md.) was used to quantify the intensity of proteins bands. The protein bands were normalized against loading controls.
# [2] = tested on: WM266-4 cells; assay: Cell staining for autophagy (autophagosome dye); type: cell-based, human; details: dansylated analog, 25 μM
# Procedure: WM266-4 cells were seeded at 10,000 cells/well in 0.1 mL of E-MEM medium supplemented with 10% FBS and 1% penicillin/streptomycin in 96 well plates (Greiner Bio-One CellStar cat #655180) and allowed to adhere overnight. After overnight incubation 100 μM 2155-14, 2155-18, 50 nM hnRNPH2 siRNA or 25 μM 2476-67.2 were added and incubated for various length of time. Cells were rinsed with warm PBS and stained with CYTO-ID® 1.0 Autophagy reagent (Enzo ENZ-51031-0050) and counterstained with DAPI. Cells were imaged using Cytation 5 imager (Biotek Inc, Winooski, Vt.) using GFP and DAPI filter sets. For % autophagic cells calculations cell counts were conducted using DAPI-stained nuclei and Object Sum Area value was obtained from at least 1,000 cells/well using DAPI channels. To obtain number of cells undergoing autophagy the cell count was conducted using GFP channel. Both GFP and DAPI cell counts were conducted using optimized algorithm in automatic mode. 8 replicate wells were used. % autophagic cells was calculated using Equation 1:% autophagic cells=100%*(number of cells, GFP channenumber of cells, DAPI channel)
# To calculate staining intensity, the Object Sum Area value from GFP channel was obtained and divided by number of cells using DAPI channel. Both GFP and DAPI cell counts were conducted using optimized algorithm in automatic mode. 3 replicate wells were used.
# [3] = tested on: WM266-4 cells; assay: Cell staining with dansylated derivatives of 2155-14; type: cell-based, human; details: 100 μM
# Procedure: WM266-4 cells were seeded at 10,000 cells/well in 0.1 mL of E-MEM medium supplemented with 10% FBS and 1% penicillin/streptomycin in 96 well plates (Greiner Bio-One CellStar cat #655180) and allowed to adhere overnight. After overnight incubation cells were stained with 100 μM of fluorescent analogs of 2155-14 for various length of time, and rinsed with warm PBS. Cells were imaged using Cytation 5 imager (Biotek Inc, Winooski, Vt.) using custom filter set: λexcitation=377/50 and λemission=542/27 nm.
# [4] = tested on: LC3-II and beclin-1 in WM266-4 cells; assay: Western blotting for LC3 and beclin-1, WM266-4; type: cell-based, human
# Procedure: as §1, with “controls (β-actin) and expressed as a fold of an untreated control.” for “controls.”
# [5] = tested on: HSP90; details: human, in vivo; cited from earlier work
# [6] = tested on: WM266-4 cells; assay: CellTiter-Glo cell viability assay, WM266-4 (including rescue assays); type: cell-based, human; details: for IC50: WM 266-4, 72 h
# Procedure: (§2) Cells were plated in 384-well plates in 8 μL of media. Test compounds and dabrafenib (pharmacological assay control) were prepared as 10-point, 1:3 serial dilutions starting at 300 μM, then added to the cells (4 μL per well) using the Biomek Plates were incubated for 72 h at 37° C., 5% CO2 and 95% relative humidity. After incubation, 4 μL of CellTiter-Glo® (Promega cat #: G7570) were added to each well, and incubated for 15 min at room temperature. Luminescence was recorded using a Biotek Synergy H4 multimode microplate reader. Viability was expressed as a percentage relative to wells containing media only (0%) and wells containing cells treated with DMSO only (100%). Three parameters were calculated on a per-plate basis: (a) the signal-to-background ratio (SB); (b) the coefficient for variation [CV; CV=(standard deviation/mean)×100)] for all compound test wells; and (c) the Z′-factor (18). The IC50 value of the pharmacological control (dabrafenib, LC Laboratories #G-4408) was also calculated to ascertain the assay robustness. In case of viability rescue assays, cells were pre-treated with caspase, calpain, and autophagy inhibitors for 1-3 h before addition of test compounds. Time course viability assay was done with luminescence measurements performed at 4, 24, 48, and 72 h.
# [7] = tested on: hnRNP H2; assay: Pull-down with biotinylated analogs, western blot; type: binding, human; details: WM266-4 lysates
# Procedure: (§3) WM-266-4 and M14 cells were sonicated in RIPA lysis buffer containing added protease inhibitors. Affinity beads were prepared by addition of the 0.3 mg biotinylated probes to the 50 μL of streptavidin agarose resin, which was washed three times with the lysis buffer. Following incubation at 4° C. for 1 h, the obtained affinity beads complexed with biotinylated compounds were washed three times with lysis buffer to remove any unbound materials. The cell lysates (1 mg protein content) were then added to the probe-bound beads, and samples were incubated at 4° C. for 1 h and overnight on a rotator. Following 5 washes with lysis buffer, the samples were subjected to SDS-PAGE. The gels were stained overnight with colloidal blue (Invitrogen). Gel bands of interest were excised, reduced, carbidomethylated, dehydrated, and digested with Trypsin Gold (Promega) as per manufacturers' instructions. Following digestion, peptides were extracted, all fractions were combined, and the volume was reduced in a SpeedVac to near dryness, and re-suspended to 20 μL using 95% ddH2O/5% ACN/0.1% formic acid (FA) prior to analysis by 1D reversed-phase LC-nESI-MS2 (as outlined below) (Ludwig, M. R. et al. Surveying the serologic proteome in a tissue-specific kras(G12D) knockin mouse model of pancreatic cancer. Proteomics 16, 516-531, doi:10.1002/pmic.201500133 2016).
# (§4) WM-266-4 cells were sonicated in RIPA lysis buffer containing protease inhibitors. Affinity beads were prepared by addition of the biotinylated probes (0.3 mg) to the streptavidin agarose resin (50 μL), which was first washed three times with the lysis buffer. […] The protein extract (1 mg) was then added to the probe-bound beads, and samples were incubated at 4° C. overnight. Following 5 washes with lysis buffer, the protein isolates were subjected to SDS-PAGE followed by transfer to nitrocellulose membrane. hnRNP H2 was detected using rabbit polyclonal antibody (Abgent #: AP13497b; 1:3,000, in 2% milk overnight), DDX1 monoclonal antibody (Santa Cruz #sc-271393, 1:1,000 in 2% BSA overnight), or hnRNP B1/A2 monoclonal antibody (Santa Cruz #SC-32316, 1:1,000 in 2% BSA overnight). After washing with TBST, the membranes were treated with chemilumiscent horseradish peroxidase detection reagent (Thermo Scientific, Cat #32209) and exposed to autoradiography film (Denville Scientific, Inc., Metuchen, N.J., USA, cat #E3018). ImageJ software (NIH, Bethesda, Md.) was used to quantify the intensity of proteins bands. The protein bands were normalized against loading controls.
# [8] = tested on: hnRNP A2/B1; assay: Pull-down with biotinylated analogs, western blot; type: binding, human; details: WM266-4 lysates
# Procedure: as §3, §4
# [9] = tested on: calpain in WM266-4 cells; assay: Calpain activity assay (Calpain-Glo); type: cell-based, human; details: 20 μM; from 30 min, persisted at 4 and 24 h
# Procedure: The Calpain-Glo Protease Assay (Promega cat #) was used to measure the calpain enzyme activity in live cells, according to the manufacturer's instructions. 1,250 of WM-266-4 cells were plated in 384-well white TC-treated plates in 5 μL of serum-free EMEM media. The cells were incubated overnight at 37° C., 5% CO2 and 95% relative humidity and 5 μL of test compounds 2155-14, (100 μM), calpain inhibitor III and PD151746 (25 μM) were added alone or in combination and incubated at 37° C., 5% CO2, and 95% relative humidity for 0.5, 4, and 24 h. After incubation, 10 μL, of a freshly prepared dilution of the Calpain-Glo Reagent stock solution (consisting of Suc-LLVY-Glo™ substrate, Calpain-Glo™ buffer, Luciferin Detection Reagent, and CaCl2) was added to cells at above mentioned times and luminescence was recorded with a Neo 2 microplate reader (Biotek Inc). All experiments were performed in triplicate and the values provided are the calculated average of at least three independent experiments.
# [10] = tested on: mouse embryonic fibroblasts (MEF); assay: Viability of mouse embryonic fibroblasts; type: cell-based
# Procedure: as §2
# [11] = biological target: T1, DDX1 (Homo sapiens, UniProt Q92499); assay: Pull-down with biotinylated analogs, western blot; type: binding; details: WM266-4 lysates
# T1 construct: WM-266-4 and M14 cells were sonicated in RIPA lysis buffer; endogenous in cells; host or cells: WM266-4 (and M14) melanoma cells and lysates
# Procedure: WM-266-4 and M14 cells were sonicated in RIPA lysis buffer containing added protease inhibitors. Affinity beads were prepared by addition of the 0.3 mg biotinylated probes to the 50 μL of streptavidin agarose resin, which was washed three times with the lysis buffer. Following incubation at 4° C. for 1 h, the obtained affinity beads complexed with biotinylated compounds were washed three times with lysis buffer to remove any unbound materials. The cell lysates (1 mg protein content) were then added to the probe-bound beads, and samples were incubated at 4° C. for 1 h and overnight on a rotator. Following 5 washes with lysis buffer, the samples were subjected to SDS-PAGE. The gels were stained overnight with colloidal blue (Invitrogen). […]
# WM-266-4 cells were sonicated in RIPA lysis buffer containing protease inhibitors. […] Following 5 washes with lysis buffer, the protein isolates were subjected to SDS-PAGE followed by transfer to nitrocellulose membrane. hnRNP H2 was detected using rabbit polyclonal antibody (Abgent #: AP13497b; 1:3,000, in 2% milk overnight), DDX1 monoclonal antibody (Santa Cruz #sc-271393, 1:1,000 in 2% BSA overnight), or hnRNP B1/A2 monoclonal antibody (Santa Cruz #SC-32316, 1:1,000 in 2% BSA overnight). […] ImageJ software (NIH, Bethesda, Md.) was used to quantify the intensity of proteins bands. […]
# [12] = tested on: lamin A/C; assay: Pull-down with biotinylated analogs; type: binding, human; details: WM266-4 lysates
# Procedure: as §3
# T1 sequence (Q92499 whole entry): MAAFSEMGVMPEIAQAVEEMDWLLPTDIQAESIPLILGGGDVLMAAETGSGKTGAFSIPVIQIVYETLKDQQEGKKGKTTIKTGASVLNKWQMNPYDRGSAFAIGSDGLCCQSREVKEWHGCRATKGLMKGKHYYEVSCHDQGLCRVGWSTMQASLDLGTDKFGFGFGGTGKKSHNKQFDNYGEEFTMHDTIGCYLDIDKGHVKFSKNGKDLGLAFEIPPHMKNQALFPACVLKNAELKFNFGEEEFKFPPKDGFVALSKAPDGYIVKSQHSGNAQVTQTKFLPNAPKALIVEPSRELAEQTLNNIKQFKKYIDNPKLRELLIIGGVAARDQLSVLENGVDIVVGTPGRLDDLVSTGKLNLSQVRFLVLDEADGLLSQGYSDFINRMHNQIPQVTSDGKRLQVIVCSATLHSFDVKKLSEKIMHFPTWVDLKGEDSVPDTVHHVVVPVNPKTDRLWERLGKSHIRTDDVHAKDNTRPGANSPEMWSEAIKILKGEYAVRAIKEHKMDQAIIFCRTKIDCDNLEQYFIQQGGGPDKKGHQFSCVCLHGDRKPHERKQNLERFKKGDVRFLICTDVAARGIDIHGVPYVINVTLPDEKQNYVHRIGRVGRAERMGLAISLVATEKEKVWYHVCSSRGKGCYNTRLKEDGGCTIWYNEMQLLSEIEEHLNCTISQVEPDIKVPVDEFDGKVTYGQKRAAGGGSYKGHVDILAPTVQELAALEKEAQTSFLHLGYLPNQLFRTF
smiles,measurement,setting,value
"CN(C)c1cccc2c(S(=O)(=O)NCCN3C(=O)C(=O)N([C@H](CC4CCCCC4)CN4CCC[C@H]4CN4C(=O)C(=O)NC[C@@H]4Cc4ccccc4)C[C@@H]3Cc3ccc(O)cc3)cccc12 [Compound 2476-67.2, N-(2-((S)-4-((R)-1-((S)-2-(((S)-6-benzyl-2,3-dioxopiperazin-1-yl)methyl)pyrrolidin-1-yl)-3-cyclohexylpropan-2-yl)-6-(4-hydroxybenzyl)-2,3-dioxopiperazin-1-yl)ethyl)-5-(dimethylamino)naphthalene-1-sulfonamide]",lamin A/C cleavage,"[1]; 2.5 μM, 24 hr",no cleavage of lamin A/C
same,lamin A/C western blot,"[1]; 5 μM, 24 hr",striking increase of cleaved lamin A/C
same,autophagosome dye staining,[2],intensive green staining
same,staining of cytoplasm,[3],Diffuse staining of the cytoplasm
same,staining of nuclear envelope,[3]; 1 h up to 48 h,stains nuclear membrane in both WM266-4 and M14 cells
same,LC3-II level,"[4]; 2.5 μM, 24 hr",no cleavage of lamin A/C or increase of levels of LC3-II was detected
same,LC3 western blot,"[4]; 5 μM, 24 hr",neither of LC3 isoforms nor actin were detected
C=CCNC1=C2C[C@@H](C)C[C@H](OC)[C@H](O)[C@@H](C)/C=C(\C)[C@H](OC(N)=O)[C@@H](OC)/C=C\C=C(/C)C(=O)NC(=CC1=O)C2=O [Compound 17-AAG],clinical outcome in patients carrying BRAF or NRAS mutation,[5],melanoma stabilization
"O=C(CCCC[C@@H]1SC[C@@H]2NC(=O)N[C@@H]21)NCCCC[C@H]1CNC(=O)C(=O)N1C[C@@H]1CCCN1C[C@@H](CC1CCCCC1)N1C[C@H](Cc2ccc(O)cc2)N(CCc2ccccc2)C(=O)C1=O [Compound 2529-3, N-(4-((S)-1-(((S)-1-((R)-3-cyclohexyl-2-((S)-5-(4-hydroxybenzyl)-2,3-dioxo-4-phenethylpiperazin-1-yl)propyl)pyrrolidin-2-yl)methyl)-5,6-dioxopiperazin-2-yl)butyl)-5-((3aS,4S,6aR)-2-oxohexahydro-1H-thieno[3,4-d]imidazol-4-yl)pentanamide]",cleaved lamin A/C level,[1],did not significantly increase; also recorded: had no effect on cleavage of lamin A/C
same,IC50,"[6]; Homo sapiens, 72 h",> 100 µM
same,cytotoxicity at 100 µM,"[6]; Homo sapiens, WM 266-4, 100 μM, 72 h, read-out: maximal inhibition of cell viability",42%
same,"hnRNP H2 in pulldown, western blot",[7],two bands; also recorded: much less abundant
same,"hnRNP A2/B1 in pulldown, western blot",[8],no bands were found
same,LC3-II level,"[4]; 100 μM, 24 h",did not significantly increase
"CCCNC(=O)[C@H]1O[C@@H]1C(=O)N[C@H](C(=O)N1CCC[C@H]1C(=O)O)[C@@H](C)CC [CA074, reference compound]",viability of WM266-4 cells,"[6]; 24 h, 20 μM cathepsin B inhibitor",25%
same,increase of calpain activity,[9],~5 fold
"CCCS(=O)(=O)Nc1ccc(F)c(C(=O)c2c[nH]c3ncc(-c4ccc(Cl)cc4)cc23)c1F [vemurafenib, reference compound]",toxicity to mouse embryonic fibroblasts,[10],toxic
"O=C(CCCC[C@H]1SC[C@H]2NC(=O)N[C@H]21)NCCCC[C@H]1CN([C@H](CC2CCCCC2)CN2CCC[C@H]2CN2C(=O)C(=O)NC[C@@H]2Cc2ccccc2)C(=O)C(=O)N1CCc1ccccc1 [Compound 2529-7, N-(4-((S)-4-((R)-1-((S)-2-(((S)-6-benzyl-2,3-dioxopiperazin-1-yl)methyl)pyrrolidin-1-yl)-3-cyclohexylpropan-2-yl)-5,6-dioxo-1-phenethylpiperazin-2-yl)butyl)-5-((3aR,4R,6aS)-2-oxohexahydro-1H-thieno[3,4-d]imidazol-4-yl)pentanamide]",cleaved lamin A/C level,[1],failing to increase levels of cleaved lamin A/C; also recorded: had no effect on cleavage of lamin A/C; also recorded: did not induce cleavage of lamin A/C
same,"DDX1 in pulldown, western blot",[11],confirmed
same,inhibition of WM266-4 viability,"[6]; 100 μM, 72 h",completely inhibited viability
same,IC50,"[6]; Homo sapiens, 72 h",3.3 ± 0.5 µM
same,lamin A/C interaction in pulldown,[12],lack of lamin A/C interaction
same,"hnRNP H2 in pulldown, western blot",[7],two bands
same,"hnRNP A2/B1 in pulldown, western blot",[8],three bands
same,LC3-II level,"[4]; 100 μM, 24 h",increased LC3-II to the levels of 2155-14/2529-1; also recorded: effect on LC3-II levels similar to non-biotinylated 2155-14/2529-1
